# From patent publication US9408908B2, “Combination adjuvant formulation” (University of Saskatchewan, priority 2008, dated 2016)
# Entries after “also recorded” stand apart in the source; their conditions may differ. No end group written: not given here.
# Legend:
# [1] = system: ΔF from BRSV; assay: Immunization of mice with BRSV ΔF protein co-formulated with CpG ODN 1826, indolicidin and/or polyphosphazene; assay type: in vivo, C57BL/6 and Balb/c mice; conditions: overall conclusion
# Experimental: Six- to eight-week-old female C57BL/6 mice (Charles River, Montreal, Quebec) were immunized twice subcutaneously at 3 week intervals with 100 μL of vaccine containing 0.5 μg ΔF from BRSV (a truncated form of the BRSV F protein engineered to lack the transmembrane domain (aa1-522 only), either alone, or co-formulated with CpG oligonucleotide 1826 (CpG ODN), indolicidin (indol), and/or polyphosphazene (PP). CpG ODN, indolicidin and polyphosphazene were given at doses of 10 μg, 20 μg, and 50 μg, respectively. Negative control animals were immunized with buffer (placebo). CpG ODN 1826 ([…]) (SEQ ID NO:8) was provided by Merial (Lyon, France), and contained a phosphorothioate-modified backbone. […]
# Statistical analysis was carried out using GraphPad Prism version 5.00 for Windows (GraphPad Software, San Diego, Calif.). Differences between groups were determined using a Mann-Whitney U test.
# CpG ODN 1826, indolicidin, and polyphosphazene were examined for their ability to enhance antigen-specific immune responses when administered with the ΔF protein, either alone, or co-formulated with CpG, indolicidin, and/or PP. […] Mice were immunized twice subcutaneously, and serum total anti-ΔF IgG titers were measured after each immunization by ELISA. […]
# [2] = system: human PBMC; assay: Chemokine induction by host defense peptides in human PBMC (ELISA); assay type: cell-based
# Experimental: (§1) These peptides were tested for induction of chemokines and cytokines in human PBMCs. Human PBMCs stimulated with 20 and 100 μg/ml of host defense peptides were assessed for various cytokines and chemokines at the 24 hour time-point by ELISA (eBiosciences). […] Subsequently, selected host defense peptides were examined for protective activity in vivo. Briefly, BALB/c mice were administered peptides (8 mg/kg) by i.p. administration 4 h prior to infection. Mice were infected with 8.4×10^7 S. aureus in 5% mucin by i.p. administration. Bacterial counts in the peritoneal lavage were determined in 24 h after the initiation of infection.
# [3] = system: human cord blood mononuclear cells; assay: Peptide activity in human cord blood mononuclear cells; assay type: cell-based
# Experimental: as §1
# [4] = system: S. aureus; assay: Protection against S. aureus infection in mice; assay type: in vivo, BALB/c mice; conditions: 8 mg/kg i.p. 4 h prior to infection; bacterial counts in peritoneal lavage at 24 h
# Experimental: as §1
# [5] = system: human PBMC; assay: MCP-1 induction by triple adjuvant formulations (peptide, CpG 10103, PCPP) in human PBMC; assay type: cell-based; conditions: 24 hours, peptide 40 μg/ml, CpG 20 μg/ml, no PCPP, average of 4 biological replicates
# Experimental: The effect of PCPP addition on chemokine induction by peptide-CpG 10103 complexes was assessed by the induction of MCP-1 in human PBMCs. Briefly, peptide-CpG complexes were formed as previously described and following incubation PCPP, with or without MgCl2 (pH 7.4), was added to the peptide-CpG complexes at various concentrations and incubated for 30 min at 37° C. Following incubation, human PBMCs were stimulated with the various formulations for 24 hours and levels of MCP-1 were measured by ELISA.
# [6] = system: human PBMCs and human red blood cells; assay: Cytotoxicity: LDH release in human PBMCs and haemolysis of human red blood cells
# [7] = Effect of indolicidin dose on adjuvant activity with CpG ODN 1826 (unpublished results); assay type: in vivo; conditions: 20 μg of peptide co-administered with CpG ODN 1826
# Text: Adjuvant doses were selected based on previous reports of adjuvanticity of the individual components.
# [8] = Cytokine production by indolicidin with CpG ODN (unpublished results)
# Text: The combination of indolicidin, however, along with CpG ODN and polyphosphazene enhanced ΔF-specific humoral and cellular immune responses, and generated a Th1 response. […] The combination of all three adjuvants was required for optimal enhancement of the immune response, as well as to shift the resulting anti-ΔF immune response from Th2 to Th1. However the mechanisms of this immune enhancement are unclear. Without being bound by a particular theory, the enhanced immunogenicity and Th1-biasing effect of the combination with all three adjuvants with ΔF could be as a result of the stabilization and prolonged effect of CpG ODN and/or ΔF, and an increased uptake of CpG ODN and ΔF into antigen-presenting cells.
# [9] = system: human PBMCs; assay: MCP-1 induction by nucleic acid-peptide formulations in human PBMCs; assay type: cell-based; conditions: human PBMCs 24 hours; coupled with peptide 1002 or 1018; four biological replicates
# Experimental: Chemokine induction by nucleic acid-peptide formulations Direct complex formation between the various nucleic acids and synthetic host defense peptides was verified prior to human PBMC stimulations. For determination of the immunostimulatory activities of various nucleic acids in complex with host defense peptides in vitro, the following experiment was conducted. Various combinations of CpG ODN 10103, non-CpG ODN 5′[…]3′ (SEQ ID NO:13), poly(I:C) and the synthetic host defense peptides 1002 and 1018 were examined for chemokine induction. Briefly, nucleic acids and peptide were co-incubated for 30 min at 37° C. prior to cell stimulations. Human PBMCs were stimulated with the various formulations for 24 hours and levels of MCP-1 were measured by ELISA. Optimal ratios 2:1, 1:1 and 1:2 nucleic acid:host defense peptide (μg/ml:μg/ml) were identified between concentration thresholds of 40 μg/ml and 10 μg/ml. The results were from four biological replicates.
# [10] = human PBMC, peptide concentration 20 μg/ml
# [11] = human PBMC, peptide concentration 20 μg/ml, 24 hour, ELISA
# [12] = human PBMC, peptide concentration 100 μg/ml
# [13] = human PBMC, peptide concentration 100 μg/ml, 24 hour, ELISA
# [14] = Table 2, JK peptides, human PBMCs, peptide concentration 20 μg/ml
# [15] = Table 2, JK peptides, human PBMCs, peptide concentration 100 μg/ml
# [16] = Table 3, indolicidin derivatives, human PBMCs, peptide concentration 20 (unit not given)
# [17] = Table 3, indolicidin derivatives, human PBMCs, peptide concentration 100 (unit not given)
substance,measurement,setting,value
CpG ODN 1826,type and enhancement of ΔF-specific immune response,[1],shift towards a Th1 or balanced immune response
HH18: host defense peptide IWVIWRR (SEQ ID NO:21) (HH18),Chemokine Induction Gro-α,[2]; [10],865 pg/mL
same,Chemokine Induction MCP-3,[2]; [10],32 pg/mL
same,Chemokine Induction MCP-1,[2]; [11],1111 pg/mL
same,Chemokine Induction Gro-α,[2]; [12],2964 pg/mL
same,Chemokine Induction MCP-3,[2]; [12],431 pg/mL
same,Chemokine Induction MCP-1,[2]; [13],9608 pg/mL
same,induction of chemokines and cytokines in human PBMCs (ranking in panel),"[2]; panel of 20 HH-class peptides, 20 and 100 μg/ml, 24 hour",most active peptides
same,activity in human cord blood mononuclear cells,[3],further confirmed
JK1: peptide VFLRRIRVIVIR (SEQ ID NO:2) (JK1),Chemokine Induction Gro-α,[2]; [14],377 pg/mL
same,Chemokine Induction MCP-1,[2]; [14],663 pg/mL
same,Chemokine Induction Gro-α,[2]; [15],105 pg/mL
same,Chemokine Induction MCP-1,[2]; [15],1226 pg/mL
JK3: peptide VQLRAIRVRVIR (SEQ ID NO:4) (JK3),Chemokine Induction Gro-α,[2]; [14],430 pg/mL
same,Chemokine Induction MCP-1,[2]; [14],873 pg/mL
same,Chemokine Induction Gro-α,[2]; [15],320 pg/mL
same,Chemokine Induction MCP-1,[2]; [15],747 pg/mL
JK4: peptide VQLRRIRVWVIR (SEQ ID NO:5) (JK4),Chemokine Induction Gro-α,[2]; [14],245 pg/mL
same,Chemokine Induction MCP-1,[2]; [14],655 pg/mL
same,Chemokine Induction Gro-α,[2]; [15],80 pg/mL
same,Chemokine Induction MCP-1,[2]; [15],557 pg/mL
JK5: peptide VQWRAIRVRVIR (SEQ ID NO:6) (JK5),Chemokine Induction Gro-α,[2]; [14],317 pg/mL
same,Chemokine Induction MCP-1,[2]; [14],673 pg/mL
same,Chemokine Induction Gro-α,[2]; [15],123 pg/mL
same,Chemokine Induction MCP-1,[2]; [15],529 pg/mL
JK6: peptide VQWRRIRVWVIR (SEQ ID NO:7) (JK6),Chemokine Induction Gro-α,[2]; [14],254 pg/mL
same,Chemokine Induction MCP-1,[2]; [14],721 pg/mL
same,Chemokine Induction Gro-α,[2]; [15],68 pg/mL
same,Chemokine Induction MCP-1,[2]; [15],671 pg/mL
Nisin Z [reference compound],Chemokine Induction Gro-α,[2]; [10],62 pg/mL
same,Chemokine Induction MCP-1,[2]; [11],434 pg/mL
same,Chemokine Induction Gro-α,[2]; [12],5811 pg/mL
same,Chemokine Induction MCP-1,[2]; [13],7329 pg/mL
same,protection in animal challenges against S. aureus,[4],offered protection
same,MCP-1 Induction,[5],47 pg/mL
VQRWLIVWRIRK [Peptide 1002],"cytotoxicity (LDH release in human PBMCs, haemolysis of human red blood cells)",[6],minimal cytotoxicity
VRLIVAVRIWRR-NH2 [Peptide 1018],"cytotoxicity (LDH release in human PBMCs, haemolysis of human red blood cells)",[6],minimal cytotoxicity
indolicidin [reference compound],Chemokine Induction Gro-α,[2]; [16],84 pg/mL
same,Chemokine Induction MCP-1,[2]; [16],245 pg/mL
same,Chemokine Induction Gro-α,[2]; [17],846 pg/mL
same,Chemokine Induction MCP-1,[2]; [17],3120 pg/mL
same,type and enhancement of ΔF-specific immune response,[1],sustain the type-2 immune response; also recorded: did not appear to be an effective adjuvant
same,adjuvant activity and class switching to IgG2a by dose,[7],enhanced antigen-specific immune responses and effected class switching to IgG2a better than when the peptide was administered at a 10-fold higher dose
same,production of Th1 cytokines IL-12 and IFN-γ and chemotactic factor MCP-1,[8],acts synergistically with CpG ODN
polyriboinosinic acid-polyribocytidylic acid [poly(I:C)],induction of MCP-1 versus individual components,[9],synergistic induction of MCP-1
